From patent publication US20170112714A1, “METHOD FOR ALLEVIATING OR TREATING ANAPHYLAXIS” (Korea Bio Medical Science Institute, priority 2015, published 2017)

Columns and labels:
Type in all cases: in vivo
ER-β mRNA = ER-β mRNA levels in brain by quantitative real-time PCR; conditions: ketotifen in compound 48/80 administered mice, p<0.05
mice = assay: Compound 48/80-induced systemic anaphylaxis, mortality; conditions: ketotifen orally 1 mg/kg 1 h before compound 48/80 (6.5 mg/kg i.p.); vs compound 48/80 alone, p<0.01
Description: The original stock of male ICR (4 weeks old) was purchased from the Dae-Han Experimental Animal Center (Eumsung, Chungbuk, Republic of Korea). Animal care and experimental procedures used were approved by the Animal Care Committee of Kyung Hee University [KHUASP (SE)-12-019].
(§1) Mice were given an intraperitoneal (i.p.) injection of compound 48/80 (6.5 mg/kg). The period used to observe mortality was based on the results of a pretest during which mice died within 30 min of administration. […] Mortality was monitored for 40 min post-injection. […] Three independent experiments were performed (n=15/group).
Jajinmori-jangdan and Hwimori-jangdan (rhythmic cycles) of Buk music were played by Kyung-Ja Ko. The playing conditions were as follows: Jajinmori-jangdan rhythmic cycle of twelve beats, […] (12/8 metre, ? =96 to 144), in an allegro moderated tempo and Hwimori-jangdan rhythmic cycle of 4 beats, 2+2 (4/4 metre, ? =208 to 230), in a presto tempo. The sound of a Buk is a match for the frequency of a baritone voice (139.9 to 355.2 Hz). […] Mice were exposed to Buk music or white noise for 5 min. All experiments were carried out in an environment free of other sounds. Buk music was recorded and copied using a MP3 player to ensure precisely the same music was played for mice in all treatment groups.

HIF-1α = HIF-1α protein levels in brain by Western blotting; conditions: oral ketotifen in compound 48/80 mice, p<0.05; FIG. 3 (protein and mRNA)
Description: as §1
Western blot analysis was performed on brain tissue extracts, as previously described in (Semenza GL: Hypoxia-inducible factor 1: oxygen homeostasis and disease pathophysiology. Trends Mol Med 2001; 7:345-350).

TNF-α = TNF-α protein levels in brain by ELISA; conditions: ketotifen in compound 48/80 mice
Description: as §1
Cytokines levels in serum and brain were analyzed by ELISA, as described previously. Cytokine levels in brain were divided according to the total protein levels, which were estimated using a BCA protein assay kit (Pierce, Rockford, Ill., USA).

VEGF mRNA = VEGF mRNA levels in brain by quantitative real-time PCR; conditions: ketotifen in compound 48/80 mice, p<0.05
Description: as §1
Quantitative real-time PCR was performed using SYBR Green master mix and mRNA levels were analyzed using an ABI StepOne real time PCR System (Applied Biosystems, Foster City, Calif., USA). Primer sequences for the reference gene GAPDH and genes of interest were as follows: GAPDH (5′ […] 3′, SEQ ID NO.1; 5′ […] 3′, SEQ ID NO.2); HIF-1α (5′ […] 3′, SEQ ID NO.3; 5′ […] 3′, SEQ ID NO.4); VEGF (5′ […] 3′, SEQ ID NO.5; 5′ […] 3′, SEQ ID NO.6). Typical profile times used were as follows; initial step 95° C. for 10 min followed by a second step at 95° C. for 15 s and 60° C. for 30 s for 40 cycles. Levels of target mRNAs were normalized versus GAPDH. Data were analyzed using the ΔΔCT method.

In the case of `CN1CCC(=C2c3ccccc3CC(=O)c3sccc32)CC1` [ketotifen], the “ER-β mRNA levels in brain” value (ER-β mRNA) is reported as “significantly increased”, the “mortality induced by compound 48/80” value (mice) is reported as “reduced mortality” and the “HIF-1α levels in brain” value (HIF-1α) is reported as “significantly reduced”. For the same molecule, the “TNF-α protein levels in brain” value (TNF-α) was “significantly reduced” and the “brain VEGF mRNA levels” value (VEGF mRNA) was “significantly reduced”.
